Test results reported in ChEMBL document CHEMBL2396625 (Bioorg Med Chem Lett, 2013).
Active and inactive are the calls of the source. No cut-off for these calls is given here.

Experiments:
DLD-1 [1] = experiment: Antimigratory activity against human DLD1 cells overexpressing PRL3 by crystal violet staining-based light microscopic analysis; format: functional, cell-based
[2] = biological target: Dual specificity protein phosphatase 3 (Homo sapiens) (UniProt P51452); experiment: Inhibition of VHR (unknown origin) using DiFMUP as substrate at 5 uM relative to control
[3] = biological target: T1, Dual specificity protein phosphatase 22 (Homo sapiens) (UniProt Q9NRW4); experiment: Inhibition of DUSP22 (unknown origin) using DiFMUP as substrate at 5 uM relative to control
T1 sequence (whole entry): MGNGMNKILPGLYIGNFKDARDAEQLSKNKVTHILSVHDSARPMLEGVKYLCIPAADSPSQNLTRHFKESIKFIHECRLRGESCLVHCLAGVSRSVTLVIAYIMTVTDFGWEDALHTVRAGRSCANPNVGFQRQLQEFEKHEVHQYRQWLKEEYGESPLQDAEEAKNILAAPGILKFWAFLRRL

[4] = biological target: T2, Low molecular weight phosphotyrosine protein phosphatase (Homo sapiens) (UniProt P24666); experiment: Inhibition of LMPTPA (unknown origin) using DiFMUP as substrate at 5 uM relative to control
T2 sequence (whole entry): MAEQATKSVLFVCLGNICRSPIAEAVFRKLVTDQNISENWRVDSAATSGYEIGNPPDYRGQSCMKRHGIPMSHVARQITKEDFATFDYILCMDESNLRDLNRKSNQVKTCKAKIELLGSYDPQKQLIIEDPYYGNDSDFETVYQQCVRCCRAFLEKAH

ASPC1 = experiment: Antimigratory activity against human AsPC1 cells overexpressing PRL3 at 10 to 20 uM after 20 hrs by crystal violet staining-based light microscopic analysis; format: functional, cell-based
DLD-1 [5] = experiment: Antiinvasive activity against human DLD1 cells overexpressing PRL3 at 20 uM after 20 hrs by crystal violet staining-based light microscopic analysis relative to control; format: functional; settings: DLD-1, 20 h
[6] = biological target: T3, Receptor-type tyrosine-protein phosphatase C (Homo sapiens) (UniProt P08575); experiment: Inhibition of CD45 (unknown origin) using DiFMUP as substrate at 5 uM relative to control
T3 sequence (whole entry): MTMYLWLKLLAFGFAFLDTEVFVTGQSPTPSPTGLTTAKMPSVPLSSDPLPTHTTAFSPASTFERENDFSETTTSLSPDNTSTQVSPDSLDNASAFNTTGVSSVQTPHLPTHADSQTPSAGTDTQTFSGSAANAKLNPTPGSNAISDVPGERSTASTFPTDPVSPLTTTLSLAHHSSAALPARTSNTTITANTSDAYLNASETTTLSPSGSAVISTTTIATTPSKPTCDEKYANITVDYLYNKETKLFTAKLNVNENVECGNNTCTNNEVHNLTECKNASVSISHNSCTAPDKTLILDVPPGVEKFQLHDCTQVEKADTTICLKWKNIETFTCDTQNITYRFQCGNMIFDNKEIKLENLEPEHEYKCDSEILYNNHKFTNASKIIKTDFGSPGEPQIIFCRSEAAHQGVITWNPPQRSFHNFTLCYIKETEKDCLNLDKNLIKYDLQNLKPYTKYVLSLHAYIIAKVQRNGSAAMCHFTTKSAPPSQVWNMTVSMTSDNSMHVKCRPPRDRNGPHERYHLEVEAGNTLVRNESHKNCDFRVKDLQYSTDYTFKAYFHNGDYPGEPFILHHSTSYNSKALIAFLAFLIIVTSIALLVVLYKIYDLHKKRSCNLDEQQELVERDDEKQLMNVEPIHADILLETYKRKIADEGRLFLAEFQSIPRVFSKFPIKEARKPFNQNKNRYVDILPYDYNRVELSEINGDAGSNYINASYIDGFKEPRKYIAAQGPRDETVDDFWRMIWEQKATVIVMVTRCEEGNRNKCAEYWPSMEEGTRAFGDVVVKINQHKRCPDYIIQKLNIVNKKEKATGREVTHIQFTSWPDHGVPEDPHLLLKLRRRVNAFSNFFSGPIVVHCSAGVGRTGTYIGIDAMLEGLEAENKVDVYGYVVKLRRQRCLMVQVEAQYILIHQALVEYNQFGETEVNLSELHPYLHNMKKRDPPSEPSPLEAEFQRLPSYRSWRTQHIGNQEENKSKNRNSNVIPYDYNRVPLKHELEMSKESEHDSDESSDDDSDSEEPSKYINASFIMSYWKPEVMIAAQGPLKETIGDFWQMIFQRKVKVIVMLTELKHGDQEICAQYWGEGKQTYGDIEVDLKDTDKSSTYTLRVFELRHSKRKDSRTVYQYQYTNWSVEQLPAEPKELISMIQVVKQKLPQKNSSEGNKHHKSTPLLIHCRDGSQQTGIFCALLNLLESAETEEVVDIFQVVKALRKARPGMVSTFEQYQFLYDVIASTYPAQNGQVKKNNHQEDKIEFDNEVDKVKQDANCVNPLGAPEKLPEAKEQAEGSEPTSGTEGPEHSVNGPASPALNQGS

[7] = biological target: T4, Protein tyrosine phosphatase type IVA 3 (Homo sapiens, UniProt O75365); experiment: Inhibition of His6-tagged full length human PRL3 using DiFMUP as substrate at 5 uM relative to control
DLD-1 [8] = experiment: Antiinvasive activity against human DLD1 cells overexpressing PRL3 assessed as decrease in snail expression at […] after 24 hrs by immunoblot analysis; format: functional, cell-based
[9] = biological target: T4, Protein tyrosine phosphatase type IVA 3; experiment: Inhibition of PRL3 in human DLD1 cells assessed as increase in phospho-KRT8 level at 10 to 20 uM by immunoblot analysis; format: cell-based; settings: DLD-1
[10] = biological target: T4, Protein tyrosine phosphatase type IVA 3; experiment: Inhibition of PRL3 in human DLD1 cells assessed as increase in phospho-ezrin level at 20 uM by immunoblot analysis relative to control; format: cell-based; settings: DLD-1
[11] = biological target: T4, Protein tyrosine phosphatase type IVA 3; experiment: Inhibition of human His6-tagged full length PRL3 assessed as inhibition of DiFMUP dephosphorylation at 5 ug/ml relative to control
[12] = biological target: T4, Protein tyrosine phosphatase type IVA 3; experiment: Inhibition of human His6-tagged full length PRL3 assessed as inhibition of DiFMUP dephosphorylation
DLD-1 [13] = experiment: Antiinvasive activity against human DLD1 cells overexpressing PRL3 assessed as increase in E-cadherin expression at 10 to 50 uM after 24 hrs by immunoblot analysis; format: functional, cell-based

T4 sequence (O75365 whole entry): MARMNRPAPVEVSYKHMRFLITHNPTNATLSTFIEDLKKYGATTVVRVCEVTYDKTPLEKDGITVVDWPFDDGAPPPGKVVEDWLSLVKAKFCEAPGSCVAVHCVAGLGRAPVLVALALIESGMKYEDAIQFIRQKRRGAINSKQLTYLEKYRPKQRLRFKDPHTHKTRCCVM
Sequence of Dual specificity protein phosphatase 3 (Homo sapiens) (P51452 whole entry, looked up): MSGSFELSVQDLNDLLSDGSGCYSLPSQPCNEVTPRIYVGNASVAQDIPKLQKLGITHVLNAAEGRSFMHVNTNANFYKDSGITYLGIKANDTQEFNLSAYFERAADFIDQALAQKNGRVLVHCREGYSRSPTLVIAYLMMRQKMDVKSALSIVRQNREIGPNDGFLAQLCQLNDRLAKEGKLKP

| IC50 (DLD-1 [1]) [µM] | inhibition [2] [%] | inhibition [3] [%] | inhibition [4] [%] | inhibition [6] [%] | inhibition [7] [%] | inhibition [9] | fold change (FC) [10] | inhibition [11] [%] | IC50 [12] [nM] | inhibition [12] | SMILES | inhibition (DLD-1 [1]) | Activity (ASPC1) | inhibition at 20 µM (DLD-1 [5]) [%] | Activity (DLD-1 [8]) | Activity (DLD-1 [13]) |
| --- | --- | --- | --- | --- | --- | --- | --- | --- | --- | --- | --- | --- | --- | --- | --- | --- |
| 7 | 7 | 30 | 0 | 12 | – | – | – | – | – | – | O=C1NC(=S)S/C1=C\c1cc(Br)ccc1OCc1ccccc1Br | Dose-dependent effect | Active | > 60 | – | – |
| 5 | 3 | 10 | 6 | 11 | 73 | Active | > 3 | 78.8 | 800 | Dose-dependent effect | COc1ccccc1COc1ccccc1/C=C/C=C1\SC(=S)NC1=O | Dose-dependent effect | Active | > 60 | Active | Active |
